ChEMBL document CHEMBL1921676, “Pyrazolone-based anaplastic lymphoma kinase (ALK) inhibitors: control of selectivity by a benzyloxy group” (Bioorg Med Chem Lett, 2011)

Tests used:
[1] = Half life in human liver microsomes
[2] = Volume of distribution in rat at 1 mg/kg, iv; assay type: ADME, organism-based; set-up: dose 1 mg/kg, route intravenous; conditions: in vivo
[3] = Half life in rat liver microsomes
[4] = Half life in mouse liver microsomes
Insulin receptor = Insulin receptor (Homo sapiens, UniProt P06213); assay: Inhibition of GST-tagged intracellular domain of IR by homogeneous time-resolved fluorescence assay; assay type: single protein
[5] = Half life in dog liver microsomes
[6] = Half life in rat at 1 mg/kg, iv; assay type: ADME, organism-based; set-up: dose 1 mg/kg, route intravenous; conditions: in vivo
[7] = Clearance in rat at 1 mg/kg, iv; assay type: ADME, organism-based; set-up: dose 1 mg/kg, route intravenous; conditions: in vivo
[8] = target: T1, Vascular endothelial growth factor receptor 2 (Homo sapiens, UniProt P35968); assay: Inhibition of human cytoplasmic domain of VEGFR-2 at 1 uM by time-resolved fluorescence assay
[9] = AUC in rat at 5 mg/kg, po; assay type: ADME, organism-based; set-up: dose 5 mg/kg, route oral; conditions: plasma
[10] = AUC in rat at 1 mg/kg, iv; assay type: ADME, organism-based; set-up: dose 1 mg/kg, route intravenous; conditions: plasma
[11] = target: ALK tyrosine kinase receptor (Homo sapiens, UniProt Q9UM73); assay: Inhibition of ALK
[12] = target: T1, Vascular endothelial growth factor receptor 2; assay: Inhibition of human cytoplasmic domain of VEGFR-2 by time-resolved fluorescence assay

ALK tyrosine kinase receptor, sequence (Q9UM73 whole entry, the tested form may be a part): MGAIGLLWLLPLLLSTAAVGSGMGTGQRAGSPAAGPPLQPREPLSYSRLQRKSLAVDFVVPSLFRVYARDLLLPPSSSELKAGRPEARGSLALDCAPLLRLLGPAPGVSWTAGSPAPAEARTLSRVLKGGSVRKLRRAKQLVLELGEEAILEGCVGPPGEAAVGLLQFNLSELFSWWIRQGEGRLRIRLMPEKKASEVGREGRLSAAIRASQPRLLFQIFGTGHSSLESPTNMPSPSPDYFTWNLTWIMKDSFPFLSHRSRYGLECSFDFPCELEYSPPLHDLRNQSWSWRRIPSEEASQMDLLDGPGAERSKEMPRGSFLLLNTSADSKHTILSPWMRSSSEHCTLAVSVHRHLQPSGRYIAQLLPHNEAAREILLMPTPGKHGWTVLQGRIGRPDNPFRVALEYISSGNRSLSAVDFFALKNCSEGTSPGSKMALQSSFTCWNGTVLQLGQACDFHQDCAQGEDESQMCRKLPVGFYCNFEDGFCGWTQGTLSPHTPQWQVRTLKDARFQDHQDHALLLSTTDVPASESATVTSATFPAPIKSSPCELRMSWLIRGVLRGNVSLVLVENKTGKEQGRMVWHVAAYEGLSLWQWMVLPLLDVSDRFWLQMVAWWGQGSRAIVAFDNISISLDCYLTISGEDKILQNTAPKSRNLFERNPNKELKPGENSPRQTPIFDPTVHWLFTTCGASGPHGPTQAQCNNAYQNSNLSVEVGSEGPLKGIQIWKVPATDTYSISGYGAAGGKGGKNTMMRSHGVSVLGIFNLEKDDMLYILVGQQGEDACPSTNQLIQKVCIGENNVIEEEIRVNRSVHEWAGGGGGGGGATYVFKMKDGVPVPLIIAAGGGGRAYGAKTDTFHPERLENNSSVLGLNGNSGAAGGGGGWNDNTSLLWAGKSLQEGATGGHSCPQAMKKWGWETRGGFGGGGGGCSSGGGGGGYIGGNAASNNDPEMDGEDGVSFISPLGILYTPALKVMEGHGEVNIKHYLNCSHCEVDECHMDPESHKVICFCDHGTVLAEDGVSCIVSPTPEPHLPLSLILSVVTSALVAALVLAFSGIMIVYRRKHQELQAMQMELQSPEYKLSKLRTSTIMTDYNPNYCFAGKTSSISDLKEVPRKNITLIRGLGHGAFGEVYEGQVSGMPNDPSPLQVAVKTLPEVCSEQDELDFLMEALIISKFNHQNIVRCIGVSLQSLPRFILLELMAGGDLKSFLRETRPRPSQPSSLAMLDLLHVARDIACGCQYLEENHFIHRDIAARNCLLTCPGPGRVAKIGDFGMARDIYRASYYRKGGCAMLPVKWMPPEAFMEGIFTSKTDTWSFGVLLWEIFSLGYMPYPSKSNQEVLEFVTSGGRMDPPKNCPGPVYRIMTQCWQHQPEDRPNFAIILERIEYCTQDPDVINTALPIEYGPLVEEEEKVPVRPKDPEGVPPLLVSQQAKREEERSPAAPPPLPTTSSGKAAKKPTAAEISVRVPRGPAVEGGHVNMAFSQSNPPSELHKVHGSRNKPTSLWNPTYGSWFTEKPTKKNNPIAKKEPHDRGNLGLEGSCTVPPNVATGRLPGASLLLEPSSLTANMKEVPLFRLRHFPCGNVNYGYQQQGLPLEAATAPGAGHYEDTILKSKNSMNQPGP
T1 sequence (P35968 whole entry, the tested form may be a part): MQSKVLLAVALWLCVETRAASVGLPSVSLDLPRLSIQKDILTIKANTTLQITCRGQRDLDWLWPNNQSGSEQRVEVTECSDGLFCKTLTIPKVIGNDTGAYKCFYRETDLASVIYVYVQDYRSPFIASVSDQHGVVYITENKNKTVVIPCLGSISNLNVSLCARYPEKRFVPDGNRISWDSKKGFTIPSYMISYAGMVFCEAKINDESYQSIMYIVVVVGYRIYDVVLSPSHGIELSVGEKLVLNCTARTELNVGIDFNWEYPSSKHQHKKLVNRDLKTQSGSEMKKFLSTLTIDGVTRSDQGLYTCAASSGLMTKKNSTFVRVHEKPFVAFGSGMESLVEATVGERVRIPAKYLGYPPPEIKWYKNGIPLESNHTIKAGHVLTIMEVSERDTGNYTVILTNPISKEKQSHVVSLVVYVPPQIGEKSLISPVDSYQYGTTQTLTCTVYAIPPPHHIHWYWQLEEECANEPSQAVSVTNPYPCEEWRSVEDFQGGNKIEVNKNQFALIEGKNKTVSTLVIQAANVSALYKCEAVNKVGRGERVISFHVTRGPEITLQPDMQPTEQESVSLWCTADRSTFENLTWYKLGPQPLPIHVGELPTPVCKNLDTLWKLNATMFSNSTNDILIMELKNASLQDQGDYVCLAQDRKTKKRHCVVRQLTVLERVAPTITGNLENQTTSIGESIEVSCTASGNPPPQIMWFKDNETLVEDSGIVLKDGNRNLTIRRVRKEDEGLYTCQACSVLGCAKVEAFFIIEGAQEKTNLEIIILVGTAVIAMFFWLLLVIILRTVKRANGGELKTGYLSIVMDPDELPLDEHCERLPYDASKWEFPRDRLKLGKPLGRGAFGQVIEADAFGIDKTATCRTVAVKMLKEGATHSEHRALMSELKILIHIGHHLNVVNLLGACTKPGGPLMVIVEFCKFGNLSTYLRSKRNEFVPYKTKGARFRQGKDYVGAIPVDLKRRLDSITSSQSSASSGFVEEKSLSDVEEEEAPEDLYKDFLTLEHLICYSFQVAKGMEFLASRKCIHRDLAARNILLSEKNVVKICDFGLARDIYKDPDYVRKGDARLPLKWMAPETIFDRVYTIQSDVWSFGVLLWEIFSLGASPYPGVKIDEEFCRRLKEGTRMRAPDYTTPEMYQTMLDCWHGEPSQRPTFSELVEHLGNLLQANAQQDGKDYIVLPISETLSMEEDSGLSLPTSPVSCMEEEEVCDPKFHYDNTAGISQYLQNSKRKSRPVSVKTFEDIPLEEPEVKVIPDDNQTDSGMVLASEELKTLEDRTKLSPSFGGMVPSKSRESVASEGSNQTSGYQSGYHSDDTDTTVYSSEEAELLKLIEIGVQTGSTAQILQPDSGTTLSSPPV

## Cn1cc(/C=C2\C(=O)NN=C2c2nccs2)c2c(OCc3ccccc3)cccc21
[1]; microsomes
  half-life: 30 min
[2]
  Vd: 1.2 L/kg
[3]; microsomes
  half-life: 30 min
[4]; microsomes
  half-life: 25 min
Insulin receptor
  IC50: 9120 nM
[5]; microsomes
  half-life: 22 min
[6]
  half-life: 41.4 min
[7]
  clearance: 19.6 mL/min
[8]
  inhibition: 50%
[9]
  AUC: 13 ng·h/mL
[10]
  AUC: 972 ng·h/mL

## Cn1cc(/C=C2\C(=O)NN=C2c2nccs2)c2c(OCc3cccc(F)c3F)cccc21
[1]; liver microsomes
  half-life: 14 min
[3]; liver microsomes
  half-life: 10 min
[4]; liver microsomes
  half-life: 8 min
Insulin receptor
  IC50: 6500 nM
[5]; liver microsomes
  half-life: 12 min

## Cn1cc(/C=C2\C(=O)NN=C2c2cccs2)c2c(OCc3ccccc3)cccc21
[11]
  IC50: 104 nM

## Cc1nnsc1C1=NNC(=O)/C1=C\c1cn(C)c2cccc(OCc3ccccc3F)c12
Insulin receptor
  IC50: > 10000 nM

## Cc1nnsc1C1=NNC(=O)/C1=C\c1cn(C)c2cccc(OCc3ccc(F)cc3F)c12
Insulin receptor
  IC50: > 10000 nM

## Cc1nnsc1C1=NNC(=O)/C1=C\c1cn(C)c2cccc(OCc3cccc(F)c3)c12
Insulin receptor
  IC50: > 10000 nM

## Cn1cc(/C=C2\C(=O)NN=C2c2nccs2)c2c(OCc3c(F)cccc3Cl)cccc21
Insulin receptor
  IC50: 1410 nM

## CC(Oc1cccc2c1c(/C=C1\C(=O)NN=C1c1nccs1)cn2C)c1ccccc1 (stereo not drawn)
Insulin receptor
  IC50: > 10000 nM

## Cn1cc(/C=C2\C(=O)NN=C2c2nccs2)c2c(OCc3ccccc3F)cccc21
Insulin receptor
  IC50: > 10000 nM

## Cn1cc(/C=C2\C(=O)NN=C2c2nccs2)c2c(OCc3c(F)cccc3F)cccc21
[1]; microsomes
  half-life: 7 min
[3]; microsomes
  half-life: 6 min
[4]; microsomes
  half-life: 6 min
Insulin receptor
  IC50: 428 nM
[5]; microsomes
  half-life: 10 min

## Cn1cc(/C=C2\C(=O)NN=C2c2nccs2)c2c(OCc3cccc(F)c3)cccc21
[1]; liver microsomes
  half-life: 10 min
[3]; liver microsomes
  half-life: 8 min
[4]; liver microsomes
  half-life: 6 min
Insulin receptor
  IC50: > 1000 nM
[5]; liver microsomes
  half-life: 8 min
[8]
  inhibition: 50%

## Cc1nnsc1C1=NNC(=O)/C1=C\c1cn(C)c2cccc(OCCN(C)C)c12
[11]
  IC50: 291 nM

## Cn1cc(/C=C2\C(=O)NN=C2c2nccs2)c2c(OCc3ccc(F)cc3)cccc21
[11]
  IC50: 63 nM

## Cn1cc(/C=C2\C(=O)NN=C2c2nc(C(F)(F)F)cs2)c2c(OCc3ccccc3)cccc21
[11]
  IC50: 10000 nM

## Cc1nnsc1C1=NNC(=O)/C1=C\c1cn(C)c2cccc(OCc3ccc(F)cc3)c12
Insulin receptor
  IC50: > 10000 nM

## Cc1nnsc1C1=NNC(=O)/C1=C\c1cn(C)c2cccc(OCc3ccccc3)c12
[1]; liver microsomes
  half-life: 32 min
[3]; liver microsomes
  half-life: > 40 min
[4]; liver microsomes
  half-life: > 40 min
Insulin receptor
  IC50: > 10000 nM
[5]; liver microsomes
  half-life: 29 min
[12]
  IC50: > 300 nM

## Cc1nnsc1C1=NNC(=O)/C1=C\c1cn(C)c2cccc(OCc3c(F)cccc3F)c12
Insulin receptor
  IC50: > 1000 nM

## Cn1cc(/C=C2\C(=O)NN=C2c2nccs2)c2c(OCc3ccc(F)cc3F)cccc21
[11]
  IC50: 229 nM

## Cc1nc(COc2cccc3c2c(/C=C2\C(=O)NN=C2c2snnc2C)cn3C)cs1
[11]
  IC50: 3000 nM

## CN(C)c1nnc(C2=NNC(=O)/C2=C\c2cn(C)c3cccc(OCc4ccccc4)c23)s1
[11]
  IC50: 4600 nM

## Cc1nnsc1C1=NNC(=O)/C1=C\c1cn(C)c2cccc(OCc3c(F)cccc3Cl)c12
Insulin receptor
  IC50: 720 nM

## Cc1nnsc1C1=NNC(=O)/C1=C\c1cn(C)c2cccc(OCc3c(F)ccc(Cl)c3F)c12
Insulin receptor
  IC50: 861 nM

## Cn1cc(/C=C2\C(=O)NN=C2c2cccnc2)c2c(OCc3ccccc3)cccc21
[11]
  IC50: 54 nM

## CCOc1cccc2c1c(/C=C1\C(=O)NN=C1c1snnc1C)cn2C
[1]; microsomes
  half-life: 6 min
[3]; microsomes
  half-life: 5 min
[4]; microsomes
  half-life: 5 min
Insulin receptor
  IC50: 998 nM
[5]; microsomes
  half-life: 5 min

## Cc1nnsc1C1=NNC(=O)/C1=C\c1cn(C)c2cccc(OCc3c(F)ccc(F)c3Cl)c12
Insulin receptor
  IC50: 661 nM

## Cc1nnsc1C1=NNC(=O)/C1=C\c1cn(C)c2cccc(OCc3ccccn3)c12
[11]
  IC50: 158 nM
